Data as given in ChEMBL document CHEMBL5620352, “Discovery of highly potent and selective VEGFR2 kinase inhibitors for the treatment of rheumatoid arthritis” (Eur J Med Chem, 2023).

Key:
Format in all cases: ADME, organism-based
[1] = Apparent clearance in Sprague-Dawley rat at 1 mg/kg, iv measured upto 24 hrs by LC-MS/MS analysis; conditions: in vivo, read-out: CL(app) (converted)
[2] = Cmax in Sprague-Dawley rat at 1 mg/kg, iv measured upto 24 hrs by LC-MS/MS analysis; conditions: in vivo
[3] = Apparent volume of distribution in Sprague-Dawley rat at 1 mg/kg, iv measured upto 24 hrs by LC-MS/MS analysis; conditions: in vivo, read-out: Vz
[4] = Half life in Sprague-Dawley rat at 1 mg/kg, iv measured upto 24 hrs by LC-MS/MS analysis; conditions: in vivo
[5] = Apparent volume of distribution in Sprague-Dawley rat at 10 mg/kg, po measured upto 24 hrs by LC-MS/MS analysis; conditions: in vivo
[6] = Apparent clearance in Sprague-Dawley rat at 10 mg/kg, po measured upto 24 hrs by LC-MS/MS analysis; conditions: in vivo, read-out: CL(app) (converted)
[7] = Half life in Sprague-Dawley rat at 10 mg/kg, po measured upto 24 hrs by LC-MS/MS analysis; conditions: in vivo
[8] = Oral bioavailability in Sprague-Dawley rat at 10 mg/kg measured upto 24 hrs by LC-MS/MS analysis; conditions: in vivo
[9] = AUC(0 to infinity) in Sprague-Dawley rat at 10 mg/kg, po measured upto 24 hrs by LC-MS/MS analysis; conditions: in vivo
[10] = AUC(0 to infinity) in Sprague-Dawley rat at 1 mg/kg, iv measured upto 24 hrs by LC-MS/MS analysis; conditions: in vivo
[11] = Cmax in Sprague-Dawley rat at 10 mg/kg, po measured upto 24 hrs by LC-MS/MS analysis; conditions: in vivo

**Q.** With `COc1cccc(C(=O)Nc2cccc(Sc3ccc4c(NC(C)=O)n[nH]c4c3)c2)c1` as the molecule, how does the clearance [1] read?
**A.** 96 mL/min/kg

**Q.** And the Cmax [2]?
**A.** 689 ng/mL

**Q.** And the Vd [3]?
**A.** 2.16 L/kg

**Q.** What about the half-life [4] of the same molecule?
**A.** 16.8 min

**Q.** And the Vz [5]?
**A.** 39.752 L/kg

**Q.** What about the CL/F [6] of the same molecule?
**A.** 657 mL/min/kg

**Q.** What about the half-life [7] of the same molecule?
**A.** 47.4 min

**Q.** And the bioavailability [8]?
**A.** 15%

**Q.** What about the AUC(0-inf) [9] of the same molecule?
**A.** 274 ng·h/mL

**Q.** And the AUC(0-inf) [10]?
**A.** 175 ng·h/mL

**Q.** What about the Cmax [11] of the same molecule?
**A.** 113 ng/mL
